Experimental findings from PMC4375101 (Chemistry & biology, 2009) are described below.

The structures appear in SMILES notation.

As usually defined, the Ki is the equilibrium dissociation constant of an inhibitor or competing ligand from its target. Low readings indicate tighter binding, high ones weaker binding.

This experiment concerns the target yeast Hsc70 (Ssa1p) (Saccharomyces cerevisiae, UniProt P10591). In words: single-turnover […]ATP ATPase assay with J-domain co-chaperone. Type of experiment: biochemical.

Chain of yeast Hsc70 (Ssa1p) (P10591 2-642): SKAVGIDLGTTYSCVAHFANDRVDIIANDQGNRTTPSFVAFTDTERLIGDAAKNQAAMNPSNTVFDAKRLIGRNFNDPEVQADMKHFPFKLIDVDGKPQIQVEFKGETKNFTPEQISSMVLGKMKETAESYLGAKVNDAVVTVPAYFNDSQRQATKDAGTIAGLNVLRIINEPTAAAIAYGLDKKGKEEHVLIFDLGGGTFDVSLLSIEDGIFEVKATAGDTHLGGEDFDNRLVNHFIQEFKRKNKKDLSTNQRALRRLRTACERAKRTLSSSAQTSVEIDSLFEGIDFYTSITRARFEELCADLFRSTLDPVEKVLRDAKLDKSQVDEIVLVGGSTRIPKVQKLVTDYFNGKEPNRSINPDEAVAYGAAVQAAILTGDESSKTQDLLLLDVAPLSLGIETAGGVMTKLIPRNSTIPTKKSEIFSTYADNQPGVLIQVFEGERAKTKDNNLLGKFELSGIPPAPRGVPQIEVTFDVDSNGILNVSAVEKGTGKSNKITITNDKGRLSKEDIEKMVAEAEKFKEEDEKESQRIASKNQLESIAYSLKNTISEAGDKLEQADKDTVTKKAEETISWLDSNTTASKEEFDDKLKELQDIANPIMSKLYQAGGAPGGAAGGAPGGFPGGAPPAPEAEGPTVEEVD
Chain of yeast Hsc70 (Ssa1p) (P03070 whole entry, further chain): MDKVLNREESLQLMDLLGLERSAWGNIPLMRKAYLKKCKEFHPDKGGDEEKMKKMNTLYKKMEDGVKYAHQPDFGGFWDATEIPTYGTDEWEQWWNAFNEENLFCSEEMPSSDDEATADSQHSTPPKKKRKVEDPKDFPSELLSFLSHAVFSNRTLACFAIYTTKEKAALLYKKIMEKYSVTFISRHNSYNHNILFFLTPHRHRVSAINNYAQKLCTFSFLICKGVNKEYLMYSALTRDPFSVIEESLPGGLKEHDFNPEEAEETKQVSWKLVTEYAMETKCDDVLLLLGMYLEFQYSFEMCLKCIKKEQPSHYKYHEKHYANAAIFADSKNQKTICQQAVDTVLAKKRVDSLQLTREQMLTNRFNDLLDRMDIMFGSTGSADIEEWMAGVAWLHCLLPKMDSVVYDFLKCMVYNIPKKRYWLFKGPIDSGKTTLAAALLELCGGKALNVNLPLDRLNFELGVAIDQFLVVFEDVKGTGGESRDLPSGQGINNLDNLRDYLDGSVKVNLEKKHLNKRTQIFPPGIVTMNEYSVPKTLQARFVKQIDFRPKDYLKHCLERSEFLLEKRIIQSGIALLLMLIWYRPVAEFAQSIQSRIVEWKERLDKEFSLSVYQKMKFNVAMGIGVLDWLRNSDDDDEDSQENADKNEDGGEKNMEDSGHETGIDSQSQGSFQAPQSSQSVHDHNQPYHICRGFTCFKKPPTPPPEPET

With `CCCCCCCCCCCCC/C=C/[C@@H](O)[C@H](COC1O[C@H](CO)[C@H](O)[C@H](OS(=O)(=O)O)[C@H]1O)NC(=O)CC12CC3CC(CC(C3)C1)C2` (stereo partly shown) [adaSGC], the Ki is approximately 10 µM.
